# Data reported in ChEMBL document CHEMBL2380257, “Discovery of a small-molecule inhibitor and cellular probe of Keap1-Nrf2 protein-protein interaction” (Bioorg Med Chem Lett, 2013).
# Assays:
# Format in all cases: physicochemical
# [1] = Metabolic stability of the compound assessed as thiol group decomposition after 48 hrs in presence of glutathione
# [2] = Stability in phosphate buffer after 24 hrs
# [3] = Metabolic stability of the compound assessed as thiol group addition after 48 hrs in presence of glutathione
# [4] = Solubility of the compound in phosphate buffer
compound,measurement,setting,value
O=C(O)[C@H]1CCCC[C@H]1C(=O)N1CCc2ccccc2[C@H]1CN1C(=O)c2ccccc2C1=O,Stability,[1],Stable
same,Stability,[2],Stable
same,Stability,[3],Stable
same,solubility,[4],> 100 µM
